The test has as its target T1, Full length Human FAK (Flag-His-TEV-FAK1) (Homo sapiens, UniProt Q05397).
T1 construct: Full length Human FAK was expressed using baculovirus in Sf9 cells; made in house; host or cells: baculovirus in Sf9 cells
Nature of the test: Biochemical assay for FAK activity, Assay 2: LANCE Ultra ULight peptide phosphorylation, 665 nm/615 nm ratio. To be noted: Flag-His-TEV-FAK1, 10 μM ATP, 30 min pre-incubation; for IC50: read-out: Assay 2 FAK H 31284A TRF PXC50 (converted). The method, then:
Flag-His-TEV-FAK1 was prepared in-house. Full length Human FAK was expressed using baculovirus in Sf9 cells with N-terminal FLAG-6×His tags followed by a TEV cleavage site (FLAG-6×His-TEV-huFAK). […] To measure inhibitors of FAK, compounds were first prepared as a 100× stock in 100% DMSO. […] After incubating for 120 minutes at room temperature, the reaction is quenched by adding 5 uL of 20 mM EDTA and 5nMEu-Anti-pTyr antibody in 1× LANCE detection buffer.

Molecules are shown by their SMILES.

We go through 33 compounds from patent US20140155410A1 (GlaxoSmithKline LLC, priority 2008, published 2014).

T1 sequence (Q05397 whole entry): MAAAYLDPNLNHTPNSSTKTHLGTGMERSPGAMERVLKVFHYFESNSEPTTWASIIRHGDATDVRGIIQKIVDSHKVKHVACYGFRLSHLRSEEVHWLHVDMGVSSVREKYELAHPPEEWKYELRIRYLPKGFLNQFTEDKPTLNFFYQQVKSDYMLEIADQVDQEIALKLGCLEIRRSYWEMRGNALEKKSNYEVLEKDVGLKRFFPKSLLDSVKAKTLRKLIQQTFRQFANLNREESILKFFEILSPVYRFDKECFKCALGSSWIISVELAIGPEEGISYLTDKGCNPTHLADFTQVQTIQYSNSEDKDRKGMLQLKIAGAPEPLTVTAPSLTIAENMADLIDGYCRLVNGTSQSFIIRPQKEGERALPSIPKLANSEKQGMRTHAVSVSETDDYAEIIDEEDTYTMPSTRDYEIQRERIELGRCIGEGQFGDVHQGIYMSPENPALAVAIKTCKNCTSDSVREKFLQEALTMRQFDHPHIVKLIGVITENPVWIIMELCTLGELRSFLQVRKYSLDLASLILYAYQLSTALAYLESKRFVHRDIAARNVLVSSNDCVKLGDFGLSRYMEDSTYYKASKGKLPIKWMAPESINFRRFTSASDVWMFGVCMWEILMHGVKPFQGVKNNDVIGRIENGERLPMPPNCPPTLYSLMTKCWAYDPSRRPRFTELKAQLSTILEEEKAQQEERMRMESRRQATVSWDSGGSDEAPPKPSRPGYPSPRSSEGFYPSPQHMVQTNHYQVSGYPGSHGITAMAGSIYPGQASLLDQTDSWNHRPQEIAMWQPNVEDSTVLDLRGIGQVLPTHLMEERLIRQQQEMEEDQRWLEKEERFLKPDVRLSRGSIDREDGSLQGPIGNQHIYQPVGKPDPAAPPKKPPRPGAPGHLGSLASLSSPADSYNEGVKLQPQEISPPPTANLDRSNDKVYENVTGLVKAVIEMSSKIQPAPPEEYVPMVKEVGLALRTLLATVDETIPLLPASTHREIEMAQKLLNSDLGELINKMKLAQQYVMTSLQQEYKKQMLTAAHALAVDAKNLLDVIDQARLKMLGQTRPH

`CCn1nc(CCO)cc1Nc1cc(Nc2c(F)cccc2C(=O)NC)c(C(F)(F)F)cn1` [Example 81, 2-{[2-{[1-Ethyl-3-(2-hydroxyethyl)-1H-pyrazol-5-yl]amino}-5-(trifluoromethyl)-4-pyridinyl]amino}-3-fluoro-N-methylbenzamide]: the IC50 is 2 nM.
As for `CNC(=O)c1cccc(F)c1Nc1cc(Nc2cc(C)nn2C)ncc1Cl` [Example 75, 2-({5-Chloro-2-[(1,3-dimethyl-1H-pyrazol-5-yl)amino]-4-pyridinyl}amino)-3-fluoro-N-methylbenzamide], the “Assay 2 FAK H 31284A TRF PXC50” value stood at 8.3.
For `CNC(=O)c1cc(F)ccc1Nc1cc(Nc2cc(C)nn2C)ncc1Cl` [Example 83, 2-({5-Chloro-2-[(1,3-dimethyl-1H-pyrazol-5-yl)amino]-4-pyridinyl}amino)-5-fluoro-N-methylbenzamide], the IC50 is 12.6 nM.
In the case of `CONC(=O)c1ccccc1Nc1cc(Nc2c(C)cnn2CC(C)C)ncc1Cl` [Example 51, 2-[(5-Chloro-2-{[4-methyl-1-(2-methylpropyl)-1H-pyrazol-5-yl]amino}-4-pyridinyl)amino]-N-(methyloxy)benzamide], the IC50 was 20 nM.
`CCn1nc(C)cc1Nc1cc(Nc2c(F)cccc2C(=O)NC)c(Cl)cn1` [Example 74, 2-({5-Chloro-2-[(1-ethyl-3-methyl-1H-pyrazol-5-yl)amino]-4-pyridinyl}amino)-3-fluoro-N-methylbenzamide]: the IC50 is 3.16 nM.
In the case of `CONC(=O)c1cccc(F)c1Nc1cc(Nc2cc(C)nn2C)ncc1Cl` [Example 95b, 2-({5-Chloro-2-[(1,3-dimethyl-1H-pyrazol-5-yl)amino]-4-pyridinyl}amino)-3-fluoro-N-(methyloxy)benzamide], the IC50 is 2 nM.
As to `CCOCc1cc(Nc2cc(Nc3ccccc3C(=O)NC)c(Cl)cn2)n(C(C)C)n1` [Example 61, 2-[(5-Chloro-2-{[3-[(ethyloxy)methyl]-1-(1-methylethyl)-1H-pyrazol-5-yl]amino}-4-pyridinyl)amino]-N-methylbenzamide], the IC50 is 25.1 nM.
As to `CCn1nc(CN(C)C)cc1Nc1cc(Nc2c(F)cccc2C(=O)NOC)c(Cl)cn1` [Example 95e, 2-{[5-Chloro-2-({3-[(dimethylamino)methyl]-1-ethyl-1H-pyrazol-5-yl}amino)-4-pyridinyl]amino}-3-fluoro-N-(methyloxy)benzamide], the IC50 is 158 nM.
Take `[2H]C([2H])(O)c1cc(Nc2cc(Nc3c(F)cccc3C(=O)NC)c(Cl)cn2)n(C)n1` [Example 93, 2-[(5-Chloro-2-{[3-(hydroxymethyl)-1-methyl-1H-pyrazol-5-yl]amino}-4-pyridinyl)amino]-3-fluoro-N-methylbenzamide-d2]: the IC50 was 10 nM.
The same measure, in the same setting: next, `CNC(=O)c1ccc(F)cc1Nc1cc(Nc2cc(C)nn2C)ncc1Cl` [Example 87, 2-({5-Chloro-2-[(1,3-dimethyl-1H-pyrazol-5-yl)amino]-4-pyridinyl}amino)-4-fluoro-N-methylbenzamide]: 2.51 nM; `CNC(=O)c1ccccc1Nc1cc(Nc2cc(C)nn2C)ncc1C1CC1` [Example 53, 2-[5-Cyclopropyl-2-(2,5-dimethyl-2H-pyrazol-3-ylamino)-pyridin-4-ylamino]-N-methyl-benzamide]: 39.8 nM; `CONC(=O)c1ccc(F)cc1Nc1cc(Nc2cc(C)nn2C(C)C)ncc1Cl` [Example 73, 2-[(5-Chloro-2-{[3-methyl-1-(1-methylethyl)-1H-pyrazol-5-yl]amino}-4-pyridinyl)amino]-4-fluoro-N-(methyloxy)benzamide]: 1.26 nM.
On the same count and under the same terms, for `CNC(=O)c1ccccc1Nc1cc(Nc2cc(C)nn2C)ncc1C(C)C` [Example 58, 2-[2-(2,5-Dimethyl-2H-pyrazol-3-ylamino)-5-isopropyl-pyridin-4-ylamino]-N-methyl-benzamide] the value was 50.1 nM; for `CNC(=O)c1cccc(F)c1Nc1cc(Nc2cnn(C)c2C)ncc1Cl` [Example 76, 2-({5-Chloro-2-[(1,5-dimethyl-1H-pyrazol-4-yl)amino]-4-pyridinyl}amino)-3-fluoro-N-methylbenzamide], 12.6 nM.
`CONC(=O)c1cccc(F)c1Nc1cc(Nc2cnn(C)c2C)ncc1Cl` [Example 95f, 2-({5-Chloro-2-[(1,5-dimethyl-1H-pyrazol-4-yl)amino]-4-pyridinyl}amino)-3-fluoro-N-(methyloxy)benzamide]: the IC50 is 2 nM.
Regarding `Cc1cc(Nc2cc(Nc3ccc(F)cc3C(=O)N3CCCN3C)c(Cl)cn2)n(C(C)C)n1` [Example 96b, 5-Chloro-N^4-{4-fluoro-2-[(2-methyl-1-pyrazolidinyl)carbonyl]phenyl}-N^2-[3-methyl-1-(1-methylethyl)-1H-pyrazol-5-yl]-2,4-pyridinediamine], the IC50 was 2000 nM.
On the same count and under the same terms, for `CCn1nc(CCN2CCCC2)cc1Nc1cc(Nc2ccccc2C(=O)NC)c(Cl)cn1` [Example 46, 2-{[5-Chloro-2-({1-ethyl-3-[2-(1-pyrrolidinyl)ethyl]-1H-pyrazol-5-yl}amino)-4-pyridinyl]amino}-N-methylbenzamide] the value was 12.6 nM; for `CONC(=O)c1ccccc1Nc1cc(Nc2cnn(C)c2C)ncc1Cl` [Example 47, 2-({5-Chloro-2-[(1,5-dimethyl-1H-pyrazol-4-yl)amino]-4-pyridinyl}amino)-N-(methyloxy)benzamide], 2.51 nM.
As to `CNC(=O)c1cccc(F)c1Nc1cc(Nc2cc(CN(C)C)nn2C)ncc1Cl` [Example 91, 2-{[5-Chloro-2-({3-[(dimethylamino)methyl]-1-methyl-1H-pyrazol-5-yl}amino)-4-pyridinyl]amino}-3-fluoro-N-methylbenzamide], the IC50 was 251 nM.
As to `CONC(=O)c1ccc(Cl)cc1Nc1cc(Nc2cc(C)nn2C(C)C)ncc1Cl` [Example 69, 4-Chloro-2-[(5-chloro-2-{[3-methyl-1-(1-methylethyl)-1H-pyrazol-5-yl]amino}-4-pyridinyl)amino]-N-(methyloxy)benzamide], the IC50 was 2.51 nM.
Turning to `CCn1nc(C)cc1Nc1cc(Nc2ccc(F)cc2C(=O)NC)c(Cl)cn1` [Example 84, 2-({5-Chloro-2-[(1-ethyl-3-methyl-1H-pyrazol-5-yl)amino]-4-pyridinyl}amino)-5-fluoro-N-methylbenzamide], the IC50 was 10 nM.
Still for that read-out and setting: next, `CONC(=O)c1cccc(F)c1Nc1cc(Nc2cc(CO)nn2C)ncc1Cl` [Example 95d, 2-[(5-Chloro-2-{[3-(hydroxymethyl)-1-methyl-1H-pyrazol-5-yl]amino}-4-pyridinyl)amino]-3-fluoro-N-(methyloxy)benzamide]: 20 nM; `CNC(=O)c1cccc(F)c1Nc1cc(Nc2cc(CO)nn2C)ncc1C(F)(F)F` [Example 80, 3-Fluoro-2-{[2-{[3-(hydroxymethyl)-1-methyl-1H-pyrazol-5-yl]amino}-5-(trifluoromethyl)-4-pyridinyl]amino}-N-methylbenzamide]: 12.6 nM; `CONC(=O)c1ccccc1Nc1cc(Nc2cc(C)nn2C)ncc1C1CC1` [Example 55, 2-[5-Cyclopropyl-2-(2,5-dimethyl-2H-pyrazol-3-ylamino)-pyridin-4-ylamino]-N-methoxy-benzamide]: 10 nM.
On to `CCn1nc(COC)cc1Nc1cc(Nc2ccccc2C(=O)NC)c(Cl)cn1` [Example 60, 2-{[5-Chloro-2-({1-ethyl-3-[(methyloxy)methyl]-1H-pyrazol-5-yl}amino)-4-pyridinyl]amino}-N-methylbenzamide], for which the IC50 is 12.6 nM.
On the same count and under the same terms, next, `CNC(=O)c1ccccc1Nc1cc(Nc2cc(C)nn2C)ncc1C#N` [Example 65, 2-({5-Cyano-2-[(1,3-dimethyl-1H-pyrazol-5-yl)amino]-4-pyridinyl}amino)-N-methylbenzamide]: 15.8 nM.
On to `CNC(=O)c1cccc(F)c1Nc1cc(Nc2cc(CCO)nn2C)ncc1C(F)(F)F` [Example 82, 3-Fluoro-2-{[2-{[3-(2-hydroxyethyl)-1-methyl-1H-pyrazol-5-yl]amino}-5-(trifluoromethyl)-4-pyridinyl]amino}-N-methylbenzamide], for which the IC50 is 0.794 nM.
Regarding `CNC(=O)c1cccc(F)c1Nc1cc(Nc2cc(C)nn2C)ncc1C(F)(F)F` [Example 78, 2-{[2-[(1,3-Dimethyl-1H-pyrazol-5-yl)amino]-5-(trifluoromethyl)-4-pyridinyl]amino}-3-fluoro-N-methylbenzamide], the IC50 is 1.58 nM.
`CONC(=O)c1cc(Cl)ccc1Nc1cc(Nc2cc(C)nn2C(C)C)ncc1Cl` [Example 70]: the IC50 was 6.31 nM.
For `CCn1nc(C)cc1Nc1cc(Nc2c(F)cccc2C(=O)NOC)c(Cl)cn1` [Example 95a, 2-({5-Chloro-2-[(1-ethyl-3-methyl-1H-pyrazol-5-yl)amino]-4-pyridinyl}amino)-3-fluoro-N-(methyloxy)benzamide], the IC50 is 1.58 nM.
With `CCn1nc(CO)cc1Nc1cc(Nc2c(F)cccc2C(=O)NOC)c(Cl)cn1` [Example 95c, 2-[(5-Chloro-2-{[1-ethyl-3-(hydroxymethyl) 1H-pyrazol-5-yl]amino}-4-pyridinyl)amino]-3-fluoro-N-(methyloxy)benzamide], the IC50 is 12.6 nM.
`CNC(=O)c1cccc(F)c1Nc1cc(Nc2cc(CCO)nn2C)ncc1Cl` [Example 89, 2-[(5-Chloro-2-{[3-(2-hydroxyethyl)-1-methyl-1H-pyrazol-5-yl]amino}-4-pyridinyl)amino]-3-fluoro-N-methylbenzamide]: the IC50 was 10 nM.
For `CONC(=O)c1ccccc1Nc1cc(Nc2cc(CO)nn2C(C)C)ncc1Cl` [Example 52, 2-[(5-Chloro-2-{[3-(hydroxymethyl)-1-(1-methylethyl)-1H-pyrazol-5-yl]amino}-4-pyridinyl)amino]-N-(methyloxy)benzamide], the IC50 was 6.31 nM.
